Data set [1] has as its system MDA-MB-231. The data set is described as follows: Antiproliferative activity against human MDA-MB-231 cells after 72 hrs by MTT assay. Format: functional, cell-based. To be noted: MDA-MB-231, 72 h. Background: Formazan colour is commonly taken as a measure of viable cells.
The next data set addresses Cannabinoid receptor 2 (Homo sapiens, UniProt P34972). The data set is described as follows: Displacement of [3H]CP55940 from human CB2 receptor transfected in HEK293 cells after 90 mins by liquid scintillation spectrophotometry. Format: cell-based.
Data set [2] deals with MDA-MB-231. Description: Antiproliferative activity against human MDA-MB-231 cells after 48 hrs by MTT assay. Format: functional, cell-based. The note with it: MDA-MB-231, 48 h.
The target in the next data set is Cannabinoid receptor 1 (Homo sapiens, UniProt P21554). Description: Displacement of [3H]CP55940 from human CB1 receptor transfected in HEK293 cells after 90 mins by liquid scintillation spectrophotometry. Format: cell-based. A general note: Loss of bound radioactivity is the signal in a displacement assay; it reports binding, not function.
Data set [3] deals with Mus musculus. Description: Toxicity in nude mouse xenografted with human MDA-MB-231 cells assessed as toxicity in spleen at 2 mg/kg, ip administered 3 times a week for 4 weeks. The format is organism-based. The arrangement: dose 2 mg/kg, route intraperitoneal. To be noted: in vivo, 672 h. On the technique in general: A xenograft is tissue or cells of one species grown in another, often human tumour cells in immunodeficient mice.

Data set [4] deals with Mus musculus. The data set is described as follows: Toxicity in nude mouse xenografted with human MDA-MB-231 cells assessed as toxicity in liver at 2 mg/kg, ip administered 3 times a week for 4 weeks. To be noted: in vivo, 672 h. More on the design: dose 2 mg/kg, route intraperitoneal. The format is organism-based.
Data set [5] can be described thus: Antiproliferative activity against human SUM159 cells after 48 hrs by MTT assay. The format is functional, cell-based. The note with it: SUM-159-PT.
The test system of data set [6] is Mus musculus. The data set is described as follows: Toxicity in nude mouse xenografted with human MDA-MB-231 cells assessed as toxicity in lungs at 2 mg/kg, ip administered 3 times a week for 4 weeks. The format is organism-based. The arrangement: dose 2 mg/kg, route intraperitoneal. To be noted: in vivo, 672 h.
Data set [7] relates to Mus musculus. Description: Toxicity in nude mouse xenografted with human MDA-MB-231 cells assessed as toxicity in heart at 2 mg/kg, ip administered 3 times a week for 4 weeks. The format is organism-based. The arrangement: dose 2 mg/kg, route intraperitoneal. The note with it: in vivo, 672 h.
The nature of data set [8]: Antiproliferative activity against human SUM149 cells after 48 hrs by MTT assay. Format: functional, cell-based. To be noted: SUM149PT.
Data set [9] concerns MDA-MB-231. Description: Antiproliferative activity against human MDA-MB-231 cells at IC50 after 48 hrs by MTT assay in presence of alpha-tocopherol. The format is functional, cell-based.
The test system of data set [10] is MDA-MB-231. Description: Antitumor activity against human MDA-MB-231 cells xenografted in nude mouse assessed as reduction in tumor growth at 2 mg/kg, ip administered 3 times a week for 4 weeks relative to control. The format is functional, organism-based. More on the design: dose 2 mg/kg.
Data set [11] has as its system MDA-MB-231. Description: Antitumor activity against human MDA-MB-231 cells xenografted in nude mouse assessed as reduction in tumor weight at 2 mg/kg, ip administered 3 times a week for 4 weeks relative to control. The format is functional, organism-based. The arrangement: dose 2 mg/kg.
Data set [12] deals with MDA-MB-231. Description: Antiproliferative activity against human MDA-MB-231 cells at IC50 after 48 hrs by MTT assay in presence of SR141716. Format: functional, cell-based.
The next data set deals with MDA-MB-468. The data set is described as follows: Antiproliferative activity against human MDA-MB-468 cells after 48 hrs by MTT assay. The format is functional, cell-based. To be noted: MDA-MB-468, 48 h.
Data set [13] relates to MDA-MB-231. The data set is described as follows: Induction of apoptosis in human MDA-MB-231 cells assessed as increase in active caspase-3 level at IC50 after 48 hrs by Western blotting analysis. Format: functional, cell-based.
A further data set relates to HMEC. Description: Antiproliferative activity against HMEC at 2 to 30 uM after 48 hrs by MTT assay. The format is cell-based. The note with it: human.
The test system of data set [14] is MDA-MB-231. Description: Antiproliferative activity against human MDA-MB-231 cells at IC50 after 48 hrs by MTT assay in presence of CDI16020046. Format: functional, cell-based.
For data set [15], the system named is MDA-MB-231. The data set is described as follows: Antiproliferative activity against human MDA-MB-231 cells at IC50 after 48 hrs by MTT assay in presence of SR144528. The format is functional, cell-based.
The test system of data set [16] is MDA-MB-231. The data set is described as follows: Antitumor activity against human MDA-MB-231 cells xenografted in nude mouse assessed as reduction in tumor volume at 2 mg/kg, ip administered 3 times a week for 4 weeks relative to control. More on the design: dose 2 mg/kg. Format: functional, organism-based.

Active and inactive are the calls of the source. The rule behind the calls is not given here.

Sequence of Cannabinoid receptor 2 (P34972 whole entry): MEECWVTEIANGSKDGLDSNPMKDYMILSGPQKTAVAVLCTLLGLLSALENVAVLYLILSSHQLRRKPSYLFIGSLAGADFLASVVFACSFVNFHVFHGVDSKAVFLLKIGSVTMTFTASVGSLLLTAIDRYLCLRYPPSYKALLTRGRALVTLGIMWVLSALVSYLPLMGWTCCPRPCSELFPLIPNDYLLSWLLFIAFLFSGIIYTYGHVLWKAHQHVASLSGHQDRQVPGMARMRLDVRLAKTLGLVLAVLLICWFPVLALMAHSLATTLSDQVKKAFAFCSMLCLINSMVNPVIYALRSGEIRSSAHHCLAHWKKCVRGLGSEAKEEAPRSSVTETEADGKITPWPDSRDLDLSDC
Sequence of Cannabinoid receptor 1 (P21554 whole entry): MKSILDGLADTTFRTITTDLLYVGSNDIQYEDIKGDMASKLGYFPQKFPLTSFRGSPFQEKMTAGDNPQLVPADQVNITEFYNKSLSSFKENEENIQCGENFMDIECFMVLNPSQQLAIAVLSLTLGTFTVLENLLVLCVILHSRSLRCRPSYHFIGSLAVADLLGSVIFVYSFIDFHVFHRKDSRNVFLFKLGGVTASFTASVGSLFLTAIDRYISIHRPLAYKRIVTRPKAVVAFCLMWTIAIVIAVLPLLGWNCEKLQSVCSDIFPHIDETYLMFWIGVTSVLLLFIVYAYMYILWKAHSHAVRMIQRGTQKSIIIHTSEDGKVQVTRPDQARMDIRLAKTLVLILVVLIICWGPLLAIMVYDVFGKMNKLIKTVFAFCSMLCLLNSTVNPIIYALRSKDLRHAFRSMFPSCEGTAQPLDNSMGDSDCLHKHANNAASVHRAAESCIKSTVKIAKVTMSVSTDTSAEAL

The molecule `CCCCCc1cc(O)c2c(c1)OC(C)(C)[C@@H]1CCC(C)=C[C@@H]21` [DRONABINOL] yielded a half-maximal inhibitory concentration (IC50) in the data set on MDA-MB-231 [1] of 5 µM.

Consider `CCCCCCC(C)(C)C1=CC2=C(C(=O)C1=O)c1nn(C)cc1C(C)(C)O2`, for which the Ki on Cannabinoid receptor 2 is 0.597 µM; on Cannabinoid receptor 1, greater than 40 µM. In the data set on MDA-MB-231 [2], half-maximal inhibition (IC50) required 5 µM.

The molecule `CCCCCCC(C)(C)C1=CC(=O)C2=C(OC(C)(C)c3cn(CC)nc32)C1=O` displayed an IC50 with MDA-MB-231 [2] of 2.5 µM.

The molecule `CCCCCCC(C)(C)C1=CC(=O)C2=C(OC(C)(C)c3cn(C)nc32)C1=O` returned an IC50 in the data set on MDA-MB-231 [2] of 5.8 µM.

The molecule `CCCCCCC(C)(C)C1=CC(=O)C2=C(OC(C)(C)c3c[nH]nc32)C1=O` yielded a concentration for half-maximal inhibition (IC50) in the data set with MDA-MB-231 [2] of 8.2 µM.

As to `CCCCCCC(C)(C)C1=CC2=C(C(=O)C1=O)c1[nH]ncc1C(C)(C)O2`, the inhibition constant Ki is 0.398 µM on Cannabinoid receptor 2 and greater than 40 µM on Cannabinoid receptor 1. For the same molecule, the IC50 in the data set on MDA-MB-231 [2] was determined as 8.5 µM.

Turning to `CCCCCCC(C)(C)C1=CC2=C(C(=O)C1=O)c1c(cnn1CC)C(C)(C)O2`, the Activity entry with Mus musculus [3], in the data set on Mus musculus [4], in the data set on Mus musculus [6], with Mus musculus [7] and with HMEC was “Non-toxic” in each case. In addition, the IC50 came to 4.1 µM in data set [5], 2.8 µM in the data set on MDA-MB-231 [2], 4.6 µM in [8] and 17.3 µM in the data set on MDA-MB-468. The results for the inhibition constant Ki on Cannabinoid receptor 2 and at Cannabinoid receptor 1 were 0.529 µM and greater than 40 µM, respectively. In addition, the outcome with MDA-MB-231 [9] and with MDA-MB-231 [15] was inactive. Moreover, the outcome with MDA-MB-231 [10], in the data set with MDA-MB-231 [11], in the data set with MDA-MB-231 [12], in the data set with MDA-MB-231 [13], with MDA-MB-231 [14] and in the data set on MDA-MB-231 [16] was Active.

A word on the IC50: it is the concentration that gives 50% inhibition. A high value points to lower potency. Usually Ki stands for a measure of affinity in units of concentration, obtained from inhibition or displacement. Low readings indicate tighter binding, high ones weaker binding.

These data come from ChEMBL document CHEMBL3414526, “Selective, nontoxic CB(2) cannabinoid o-quinone with in vivo activity against triple-negative breast cancer” (J Med Chem, 2015).
